Measurements published in publication PMC12720774, “Detergents alter the stability and lipid binding properties of the CD1d immunoreceptor” (Protein Science : A Publication of the Protein Society, 2025).
“And” between values parts separate entries of the source, which are not always exact repeats. Equal entries are not always repeated. Where two headings read alike, the source gives them in different places.

Tests used:
[1] = molecular target: T1, recombinant human CD1d ectodomain/β2m complex (hCD1d) (Homo sapiens, UniProt P15813); assay: Intrinsic tryptophan fluorescence (ITF) binding assay
T1 construct: TEV protease cleavage site ENLYFQS (C); BirA biotinylation site (C); His7 (C); made in house; host or cells: TurboCHO cells (GenScript)
T1 sequence (P15813 whole entry, looked up, the tested form may be a part, one chain of several): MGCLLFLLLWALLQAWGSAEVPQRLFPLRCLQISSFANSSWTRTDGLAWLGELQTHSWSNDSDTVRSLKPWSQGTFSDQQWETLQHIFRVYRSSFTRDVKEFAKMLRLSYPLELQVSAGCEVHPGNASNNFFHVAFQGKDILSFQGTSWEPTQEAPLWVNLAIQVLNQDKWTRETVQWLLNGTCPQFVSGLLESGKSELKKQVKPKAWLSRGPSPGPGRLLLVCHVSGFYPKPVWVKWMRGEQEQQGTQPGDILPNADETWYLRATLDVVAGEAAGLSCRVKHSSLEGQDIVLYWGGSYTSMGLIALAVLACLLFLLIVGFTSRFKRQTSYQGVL
Description: (§1) For ITF assays, the concentration of hCD1d was kept constant, and intrinsic Trp fluorescence (excitation at 285 nm, emission at 335 nm) was measured as a function of increasing detergent concentration (Fossum et al., [2023]) (Figure S2). The change in relative fluorescence intensity (F − F 0/F 0) provides an indication of binding. […] This was due to limited detergent solubility and decreased hCD1d stability in the presence of a large excess of detergent (see below). […] SDS was the exception, for which Trp fluorescence of hCD1d decreased with added detergent. This could indicate a unique conformational change or destabilization of the protein.
(§2) ITF spectra were recorded from 300 to 500 nm using a Horiba FL3‐21 Fluorometer with the excitation wavelength of 285 nm and excitation/emission slits of 6.2 nm. Fluorescence spectra of 50 to 100 nM hCD1d were acquired in the absence and presence of detergents in 1X PBS pH 7.4 at 25°C. Prior to data acquisition, hCD1d and detergent or lipid samples were incubated at 37°C overnight (~12 h) to simulate in vitro and in vivo loading conditions. […] For 18:1 LPC experiments, fluorescence spectra of 100 nM hCD1d were acquired in the absence and presence of 18:1 LPC in 1X PBS pH 7.4 at 25°C. […] For all ITF experiments, the change in fluorescence signal (F − F 0/F 0) was determined at 335 nm. Three replicates were performed, and data are presented as the mean ± standard deviation (n = 3). K D values were fitted with non‐linear regression in GraphPad Prism v10.1.

[2] = molecular target: T2, recombinant human CD1d ectodomain/β2m complex (hCD1d) (Homo sapiens, UniProt P15813+P61769); assay: as above
T2 construct: TEV protease cleavage site ENLYFQS (C); BirA biotinylation site (C); His7 (C); made in house; host or cells: TurboCHO cells (GenScript)
T2 sequence (P61769+P15813 fused): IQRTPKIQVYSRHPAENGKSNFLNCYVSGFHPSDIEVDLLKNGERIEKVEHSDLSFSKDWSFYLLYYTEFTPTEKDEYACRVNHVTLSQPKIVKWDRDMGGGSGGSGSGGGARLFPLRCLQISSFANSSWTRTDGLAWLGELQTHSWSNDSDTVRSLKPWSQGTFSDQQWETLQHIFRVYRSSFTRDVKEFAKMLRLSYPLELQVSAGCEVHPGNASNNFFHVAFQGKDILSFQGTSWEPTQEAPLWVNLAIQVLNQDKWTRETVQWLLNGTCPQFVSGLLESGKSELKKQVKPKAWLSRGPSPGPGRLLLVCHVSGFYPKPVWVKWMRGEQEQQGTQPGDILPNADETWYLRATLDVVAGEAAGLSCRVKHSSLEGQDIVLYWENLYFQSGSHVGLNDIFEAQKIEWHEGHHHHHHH
Description: as §1, §2

AF647‐labeled hCD1d [3] = molecular target: T3, AF647‐labeled hCD1d (Homo sapiens, UniProt P15813+P61769); assay: Microscale thermophoresis (MST) binding assay
T3 construct: TEV protease cleavage site ENLYFQS (C); BirA biotinylation site (C); His7 (C); made in house; host or cells: TurboCHO cells (GenScript)
T3 sequence (P61769+P15813 fused): as above
Procedure, shortened: (§3)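 hCD1d was NHS-labeled with AF647 (~75% labeling) and held at 100 nM against rising detergent or 18:1 LPC in PBS pH 7.4. Samples were preincubated at 37°C overnight (~12 h) and read at 25°C with 20 s IR-on time. Data are mean ± SD, n = 3.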

AF647‐labeled hCD1d [4] = molecular target: T4, AF647‐labeled hCD1d (Homo sapiens, UniProt P15813); assay: Microscale thermophoresis (MST) binding assay
T4 construct: TEV protease cleavage site ENLYFQS (C); BirA biotinylation site (C); His7 (C); made in house; host or cells: TurboCHO cells (GenScript)
T4 sequence (P15813 whole entry, looked up): as the sequence (P15813 whole entry, looked up, the tested form may be a part, one chain of several) above
Procedure, shortened: as §3

[5] = 0.001 M detergent, 100 nM AF647‐hCD1d

SMILES | Fnorm (rep 1-3) (AF647‐labeled hCD1d [3]; 4.88281e-7 M detergent) | Fnorm (rep 1-3) (AF647‐labeled hCD1d [3]; 9.76563e-7 M detergent) | Fnorm (rep 1-3) (AF647‐labeled hCD1d [3]; 1.95313e-6 M detergent) | Fnorm (rep 1-3) (AF647‐labeled hCD1d [3]; 3.90625e-6 M detergent) | Fnorm (rep 1-3) (AF647‐labeled hCD1d [3]; 7.8125e-6 M detergent) | Fnorm (rep 1-3) (AF647‐labeled hCD1d [3]; 1.5625e-5 M detergent) | Fnorm (rep 1-3) (AF647‐labeled hCD1d [3]; 3.125e-5 M detergent) | Fnorm (rep 1-3) (AF647‐labeled hCD1d [3]; 6.25e-5 M detergent) | Fnorm (rep 1-3) (AF647‐labeled hCD1d [3]; 0.000125 M detergent) | Fnorm (rep 1-3) (AF647‐labeled hCD1d [3]; 0.00025 M detergent) | Fnorm (rep 1-3) (AF647‐labeled hCD1d [3]; 0.0005 M detergent) | Fnorm (rep 1-3) (AF647‐labeled hCD1d [3]; [5]) | also measured
CCCCCCCCCCCCCCCC[N+](C)(C)C [CTAB, hexadecyltrimethylammonium bromide] | 812.075 ‰ and 810.216 ‰ and 807.19 ‰ | 814.18 ‰ and 810.332 ‰ and 807.136 ‰ | 814.445 ‰ and 813.166 ‰ and 810.178 ‰ | 815.986 ‰ and 818.175 ‰ and 815.532 ‰ | 824.731 ‰ and 823.149 ‰ and 822.329 ‰ | 835 ‰ and 828.362 ‰ and 831.779 ‰ | 849.376 ‰ and 847.531 ‰ and 847.477 ‰ | 858.509 ‰ and 854.12 ‰ and 851.197 ‰ | 844.143 ‰ and 841.907 ‰ and 839.82 ‰ | 844.455 ‰ and 843.492 ‰ and 841.952 ‰ | 845.737 ‰ and 843.294 ‰ and 845.557 ‰ | 845.54 ‰ and 843.477 ‰ and 843.19 ‰ | Kd ([1]; ITF - Kd (uM) average, Figure 5A, detergent binding to hCD1d): 41.5 µM; Kd ([1]; K D (ITF), detergent with 100 nM hCD1d, 25°C, 1X PBS pH 7.4, apparent): 41.5 ± 6.5 µM; F-F0/F0 (rep 1-3) ([2]; 3.0518e-8 M detergent): 0; F-F0/F0 (rep 1-3) ([2]; 3.125e-5 M detergent): 0.613 and 0.517 and 0.672; F-F0/F0 (rep 1-3) ([2]; 6.25e-5 M detergent): 0.966 and 1.08 and 1.22; F-F0/F0 (rep 1-3) ([2]; 0.000125 M detergent): 1.45 and 1.3 and 1.29; F-F0/F0 (rep 1-3) ([2]; 0.00025 M detergent): 1.44 and 1.52 and 1.46; F-F0/F0 (rep 1-3) ([2]; 0.0005 M detergent): 1.55 and 1.65 and 1.44; F-F0/F0 (rep 1-3) ([2]; 0.001 M detergent, 100 nM hCD1d): 1.83 and 1.56 and 1.71; Kd (AF647‐labeled hCD1d [4]; K D (MST), detergent with 100 nM AF647‐labeled hCD1d, 25°C, apparent): 10.9 ± 1.2 µM; Kd (AF647‐labeled hCD1d [4]; MST - Kd (uM) average, Figure 5B, detergent binding to hCD1d): 10.9 µM
C[C@H](CCC(=O)O)[C@H]1CC[C@H]2[C@@H]3CC[C@@H]4C[C@H](O)CC[C@]4(C)[C@H]3C[C@H](O)[C@]12C [Deoxycholate, sodium deoxycholate] | 795.887 ‰ and 794.029 ‰ and 796.702 ‰ | 796.103 ‰ and 795.392 ‰ and 796.86 ‰ | 795.057 ‰ and 792.832 ‰ and 795.608 ‰ | 796.418 ‰ and 796.702 ‰ and 795.904 ‰ | 795.548 ‰ and 798.002 ‰ and 797.636 ‰ | 795.128 ‰ and 798.849 ‰ and 799.048 ‰ | 798.119 ‰ and 798.444 ‰ and 799.423 ‰ | 800.962 ‰ and 799.886 ‰ and 803.305 ‰ | 801.785 ‰ and 804.744 ‰ and 805.19 ‰ | 804.206 ‰ and 807.083 ‰ and 805.968 ‰ | 808.515 ‰ and 808.171 ‰ and 806.841 ‰ | 814.33 ‰ and 809.551 ‰ and 810.963 ‰ | Kd ([1]; detergent with 100 nM hCD1d, 25°C, 1X PBS pH 7.4, apparent, read-out: K D (ITF)): > 10000 µM; binding to hCD1d by ITF (in words) [2]: No significant binding; binding to hCD1d by MST (in words) (AF647‐labeled hCD1d [3]): observable binding; Fnorm (rep 1-3) (AF647‐labeled hCD1d [3]; 3.05176e-8 M detergent): 795.701 ‰ and 796.724 ‰ and 797.98 ‰; Fnorm (rep 1-3) (AF647‐labeled hCD1d [3]; 6.10352e-8 M detergent): 794.625 ‰ and 796.029 ‰ and 797.315 ‰; Fnorm (rep 1-3) (AF647‐labeled hCD1d [3]; 1.2207e-7 M detergent): 793.156 ‰ and 796.701 ‰ and 795.845 ‰; Fnorm (rep 1-3) (AF647‐labeled hCD1d [3]; 2.44141e-7 M detergent): 795.335 ‰ and 795.616 ‰ and 795.028 ‰; Kd (AF647‐labeled hCD1d [4]; Figure 5B, detergent binding to hCD1d, read-out: MST - Kd (uM) average): 103 µM; Kd (AF647‐labeled hCD1d [4]; detergent with 100 nM AF647‐labeled hCD1d, 25°C, apparent, read-out: K D (MST)): > 10000 µM
